SMILES strings stand for the structures. Active and inactive are the calls of the source. No rule for the calls is given here.

System in the first assay: not listed separately
Briefly: inducers of V. cholerae light production, dose response, BH1578, luxS and cqsA deficient, dry powder (AID 651854). Conditions: V. cholerae BH1578 lux reporter, luminescence, 6 h; at 30 µM (top of the series).
On to `CC(C)NC(=O)Nc1ccc2c(c1)C(=O)N([C@H](C)CO)C[C@H](C)[C@@H](CN(C)Cc1ccncc1)OCCCC[C@@H](C)O2`, for which the light induction was 3.45% (inactive).

Staying with this assay, now noted: V. cholerae BH1578 lux reporter, luminescence, 6 h; at 35 µM (top of the series).
For the molecule `CC(C)c1cccc(NC(=O)C[C@H]2CC[C@H]3[C@@H](COc4ccc(NC(=O)c5ccc(C#N)cc5)cc4C(=O)N3C)O2)c1`, the light induction is 0.322% (inactive).

Regarding `CO[C@@H]1CN(C)C(=O)c2cc(NC(=O)C3CC3)ccc2OC[C@H](C)N(C(=O)NC(C)C)C[C@H]1C`, the light induction is 1.05% (inactive).

As for `O=C(O)C[C@@H]1CC[C@H](NC(=O)c2ccncc2)[C@@H](CO)O1`, the light induction is 0.322% (inactive).

On to `C[C@@H]1CN([C@@H](C)CO)S(=O)(=O)c2ccc(-c3ccncc3)cc2O[C@@H]1CN(C)S(=O)(=O)c1ccccc1F`, for which the light induction is 0.546% (inactive).

In the case of `COCC(=O)N[C@@H]1C=C[C@H](CC(=O)N2CCCCC2)O[C@@H]1CO`, the light induction is 0.262% (inactive).

Take `C[C@H](CO)N1C[C@H](C)[C@@H](CN(C)S(=O)(=O)c2ccccc2F)Oc2cc(-c3ccncc3)ccc2S1(=O)=O`: the light induction was 0% (inactive).

As to `C[C@H]1CN([C@@H](C)CO)C(=O)c2cc(NC(=O)CCC(F)(F)F)ccc2O[C@H]1CN(C)Cc1ccc(Cl)c(Cl)c1`, the light induction was 1.05% (inactive).

`CCn1nnc(NCc2ccc(N3CCCC3)cc2)n1`: the light induction was 10.7% (inactive).

With `Cc1ccc2cc3c(NC(=O)c4ccco4)nn(CC(C)C)c3nc2c1`, the light induction was 2.93% (inactive).

With `C[C@H]1CCCCO[C@H](CN(C)C(=O)c2ccccc2)[C@@H](C)CN([C@@H](C)CO)C(=O)c2cc(NC(=O)c3ccccc3)ccc2O1`, the light induction is -0.733% (inactive).

Turning to `COc1ccc(CNC(=O)N(C)C[C@@H]2OCc3ccccc3-c3c(n(C)c4ccccc34)C(=O)N([C@@H](C)CO)C[C@H]2C)cc1`, the light induction is 1.27% (inactive).

In the case of `Cc1noc(C)c1NC(=O)N(C)C[C@@H]1Oc2ccc(NC(=O)CCC(F)(F)F)cc2C(=O)N([C@@H](C)CO)C[C@@H]1C`, the light induction is 0.322% (inactive).

As to `CCCC#Cc1cnc2c(c1)C(=O)N([C@H](C)CO)C[C@H](C)[C@H](CN(C)C(=O)CCN1CCCCC1)O2`, the light induction was -0.148% (inactive).

As to `C[C@H](CO)N1C[C@H](C)[C@@H](CN(C)C(=O)NC2CCCCC2)OCc2ccccc2-c2c(n(C)c3ccccc23)C1=O`, the light induction was 0% (inactive).

`CO[C@H]1CN(C)C(=O)c2cccc(C#N)c2OCC[C@@H]2CC[C@@H](OC)[C@@H](CN(C)C(=O)[C@H]1C)O2`: the light induction was 5.31% (inactive).

On to `COc1ccc(C#Cc2ccc3c(c2)O[C@H](CN(C)C(=O)CN2CCOCC2)[C@@H](C)CN([C@@H](C)CO)S3(=O)=O)cc1`, for which the light induction is 0% (inactive).

With `CCCN(C)C[C@@H]1Oc2cc(C#Cc3cccc(OC)c3)ccc2S(=O)(=O)N([C@@H](C)CO)C[C@@H]1C`, the light induction was -0.148% (inactive).

For the molecule `COc1ccc(C#Cc2cnc3c(c2)C(=O)N([C@@H](C)CO)C[C@H](C)[C@H](CN(C)C(=O)CC2CC2)O3)cc1`, the light induction was 0% (inactive).

Regarding `O=C(C[C@@H]1CC[C@@H]2[C@H](COC[C@H](O)CN2Cc2ccc(C(F)(F)F)cc2)O1)N1CCc2ccccc2C1`, the light induction is 0.313% (inactive).

As to `C[C@H](NC(=O)C[C@@H]1CC[C@H]2[C@H](COc3ccc(NS(=O)(=O)c4ccc(Cl)cc4)cc3C(=O)N2C)O1)c1ccccc1`, the light induction is 0.158% (inactive).

With `Cc1ccccc1-c1ccc2c(c1)O[C@H](CN(C)Cc1ccc(C(=O)O)cc1)[C@@H](C)CN([C@H](C)CO)S2(=O)=O`, the light induction was -0.148% (inactive).

Take `Cn1nc(NC(=O)c2ccco2)c2c(F)cccc21`: the light induction is -0.824% (inactive).

Regarding `O=[N+]([O-])c1ccc(N(CCO)CCO)c2c1no[n+]2[O-]`, the light induction is 9.14% (inactive).

In the case of `C[C@H]1CN([C@@H](C)CO)C(=O)Cc2cc(NS(C)(=O)=O)ccc2O[C@H]1CN(C)Cc1ccc(-c2ccccc2)cc1`, the light induction was -0.148% (inactive).

In the case of `Cc1ccc2cc3c(NC(=O)c4ccccn4)nn(C)c3nc2c1`, the light induction is -0.663% (inactive).

As to `CO[C@H]1CN(C)C(=O)c2cc(NS(=O)(=O)c3c(C)noc3C)ccc2OC[C@H](C)NC[C@@H]1C`, the light induction was 0% (inactive).

On to `CO[C@@H]1CC[C@H]2CCOc3ccc(C#N)cc3C(=O)N(C)[C@H](C)C(=O)N(C)C[C@@H]1O2`, for which the light induction was 0.313% (inactive).

For the molecule `CN1C(=O)c2cc(NS(C)(=O)=O)ccc2OC[C@@H]2O[C@H](CC(=O)NCc3ccc(-c4ccccc4)cc3)CC[C@@H]21`, the light induction is 0.313% (inactive).

With `Cc1noc(C)c1NC(=O)N(C)C[C@H]1Oc2ccc(NC(=O)CCC(F)(F)F)cc2C(=O)N([C@H](C)CO)C[C@H]1C`, the light induction was 0% (inactive).

For `CCC(=O)Nc1nn(C)c2nc3cc(C)ccc3cc12`, the light induction was -0.824% (inactive).

For `C[C@H](CO)N1C[C@H](C)[C@H](CN(C)C(=O)Cc2ccncc2)Oc2cc(C3=CCCCC3)ccc2S1(=O)=O`, the light induction was 0.158% (inactive).

`O=C(N[C@@H]1C=C[C@H](CC(=O)N2CCCCC2)O[C@H]1CO)c1ccc2c(c1)OCO2`: the light induction is 0% (inactive).

For `CC=Cc1ccc2n(c1=O)C[C@@H]1[C@@H](CO)[C@H](C(=O)NCC)N(Cc3ccccc3Cl)[C@H]21` (mixture of isomers), the light induction was 0.694% (inactive).

On to `COc1ccc(-c2ccc([C@@H]3[C@H](C#N)N(C(=O)NC4CCCCC4)[C@H]3CO)cc2)cc1`, for which the light induction was -0.497% (inactive).

For `CO[C@@H]1CC[C@@H]2CCOc3ccc(C#N)cc3C(=O)N(C)C[C@H](C)C(=O)N(C)C[C@H]1O2`, the light induction is 0.497% (inactive).

With `CCOC(=O)c1cc2c(c(-c3cccc(Br)c3)n1)[C@@H](CCO)N(C(=O)NC(C)C)C2`, the light induction is 0.322% (inactive).

Consider `Cc1ccc2cc3c(NC(=O)c4ccccc4)nn(C)c3nc2c1`, for which the light induction was 0.503% (inactive).

On to `O=[N+]([O-])c1ccc(N2CCOCC2)c2c1no[n+]2[O-]`, for which the light induction was 0.322% (inactive).

The test system of the next assay is V. cholerae BH1578 lux reporter, luminescence, 6 h. Described as above.
Settings: not given
Consider `CCCn1nnnc1NCc1ccc(N2CCCC2)cc1`, for which the AC40 is less than 0.135 µM.

As for `CC(C)COC(=O)CNc1n[nH]c(=S)[nH]c1=O`, the AC40 is > 35 µM (inactive).

As to `Cc1cc(C)c2c(NC(=O)c3ccco3)nn(C)c2n1`, the AC40 is > 35 µM (inactive).

In the case of `CCn1nc(NC(=O)c2ccco2)c2cc3ccccc3nc21`, the AC40 is 5.43 µM.

On to `C[C@H](CO)N1C[C@H](C)[C@@H](CN(C)S(=O)(=O)c2ccccc2)Oc2c(NC(=O)Nc3ccc4c(c3)OCO4)cccc2C1=O`, for which the AC40 is > 16 µM (inactive).

As to `COc1ccc(-c2ccc([C@H]3[C@@H](C#N)N(C(=O)NC4CCCCC4)[C@H]3CO)cc2)cc1`, the AC40 is > 35 µM (inactive).

For the molecule `CCn1nc(NC(=O)c2ccco2)c2cc3ccc(C)cc3nc21`, the AC40 is > 35 µM (inactive).

For the molecule `O=C(NC1CCCCC1)C(=O)c1c[nH]c2ccccc12`, the AC40 is > 35 µM (inactive).

As to `Cn1c(C(=O)NC2CCCCC2)cc2c(=O)n(C)c3ccccc3c21`, the AC40 was > 35 µM (inactive).

In the case of `Cc1cccc2cc3c(NC(=O)c4ccco4)nn(C)c3nc12`, the AC40 is less than 0.135 µM.

With `CCn1nnnc1NCc1ccc(N2CCCC2)cc1`, the AC40 was less than 0.135 µM.

For `Cc1ccc2cc3c(NC(=O)C4CCCCC4)nn(C)c3nc2c1`, the AC40 was less than 0.135 µM.
